Measurements taken from patent US10869931B2, “Polyethylene glycol-modified angiogenesis inhibitor HM-1 and application thereof” (NANJING ANJI BIOLOGICAL TECHNOLOGY CO.,LTD, priority 2016, dated 2020).
Marks after values point to notes of the source that are not given here. Where no end group is shown, it is not given here.

Legend:
[1] = system: collagen induced arthritis (CIA) in DBA/1 mice; test: Collagen-induced mouse arthritis (CIA) model; format: in vivo; conditions: for Joint swelling / Left and right paw swelling / Clinical score: CIA DBA/1 mice; for Clinical score: maximum score 16
[2] = system: Prostate cancer tumor cells; test: MTT proliferation inhibition, prostate cancer cells; format: cell-based, human; design: concentration or dose not given beside the values; conditions: 48 h
Outline: (§1)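 Tumour cells plated at 2×10^4 cells/mL, attached overnight, then exposed to dilutions of mPEG-HM-1 for 48 h at 37 °C, 5% CO2. MTT added 4 h, formazan dissolved in DMSO, absorbance 570/630 nm; growth inhibition = 1 − treated/untreated, three independent repeats, mean±SD.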

[3] = system: Melanoma tumor cells; test: MTT proliferation inhibition, melanoma cells; format: cell-based, human; design: concentration or dose not given beside the values; conditions: 48 h
Outline: as §1

[4] = system: neovascularization in rat model of premature retinopathy; test: Fluctuating-oxygen rat model of premature retinopathy (endothelial nuclei count); format: in vivo; conditions: day 14
Method: A fluctuating oxygen-induced animal model was used to randomly divide the newborn rats that were naturally delivered on the same day (within 12 hours) into three groups: the oxygenated model group, the oxygenated treatment group, and the normal control group. The oxygenated model group was subdivided into three subgroup models and along with the oxygenated treatment group was placed in a semi-closed oxygen chamber made of plexiglass. The chamber was connected to medical oxygen, and the oxygen analyzer was adjusted to a concentration of 80%±2%. After 24 hours, Nitrogen gas was introduced into the oxygen chamber, and the oxygen concentration was adjusted to 10%±2% and maintained for 24 h. This process was repeated, so that the oxygen concentration in the oxygen chamber is switched between 80% and 10% every 24 hours, and then transferred to the air for 7 days. The oxygen concentration was monitored 8 times a day, and the ambient temperature in the control cabin was 23° C.±2° C. Bedding change, adding food, changing water and replacing mother rats were performed once a day. The normal control group was placed in an animal facility environment. […] The oxygenated therapeutic components were divided into four subgroups, and on the 7th day of modeling, mPEG-SC-HM-1, mPEG2-NHS-HM-1, mPEG-ALD10k-HM-1, and mPEG-bALD-HM-1 were respectively administered by intravitreal injection. Only normal saline was administered to the oxygen model group and the control group. The administrations continued for 1 week. […] After immersion in wax, serial section at thickness of 4 μm was performed, wherein the sections were kept away from the optic disc. The sections are parallel to the sagittal plane of the cornea to the optic disc. Ten sections per eyeball were randomly selected from each eyeball to be stained with hematoxylin and eosin, and the number of vascular endothelial cells that broke through the retinal inner membrane was counted (only the vascular endothelial nucleus closely related to the inner retinal membrane was counted), and the average numbers of endothelial cells per eyeball per slice was counted.

[5] = system: Brain tumor cells; test: MTT proliferation inhibition, brain tumor cells; format: cell-based, human; design: concentration or dose not given beside the values; conditions: 48 h
Outline: as §1

[6] = system: xylene-induced ear swelling in Kunming mice; test: Xylene-induced ear swelling in mice; format: in vivo, mouse; conditions: for Inhibition rate: ear swelling vs control
Outline: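 Kunming mice were dosed once daily for 5 days (aspirin 200 mg/kg as positive control, saline as blank). One hour after the last dose, xylene was applied to the right ear, with the left ear as untreated reference. Ear punches were weighed 2 h later; swelling degree = right − left weight, rate = degree/left weight ×100%.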

[7] = system: mouse spleen lymphocytes; test: ConA-stimulated mouse spleen lymphocyte proliferation (MTT); format: cell-based; conditions: ConA 5 μg/mL, 48 h
Outline: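 Proliferation read by MTT (4 h), DMSO solubilisation and OD 570 nm, 5 replicates, after 48 h culture at 37° C. Cells were erythrocyte-depleted splenocytes at 5×10^6/mL in RPMI 1640 plus 10% calf serum; groups were blank, ConA and dexamethasone 0.02 mg/mL.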

[8] = system: Head and neck cancer tumor cells; test: MTT proliferation inhibition, head and neck cancer cells; format: cell-based, human; design: concentration or dose not given beside the values; conditions: 48 h
Outline: as §1

[9] = system: Ovarian cancer tumor cells; test: MTT proliferation inhibition, ovarian cancer cells; format: cell-based, human; design: concentration or dose not given beside the values; conditions: 48 h
Outline: as §1

[10] = system: Thyroid cancer tumor cells; test: MTT proliferation inhibition, thyroid cancer cells; format: cell-based, human; design: concentration or dose not given beside the values; conditions: 48 h
Outline: as §1

[11] = 10 mg/kg subcutaneous from day 30 of modeling
[12] = 25 μg intravitreal for 1 week from day 7, vascular endothelial nuclei breaking through inner retinal membrane per slice
[13] = 5 mg/kg once daily for 5 days, right minus left ear piece weight 2 h after xylene
[14] = 10 mg/kg once daily for 5 days, 2 h after xylene
[15] = 20 mg/kg once daily for 5 days, 2 h after xylene
[16] = 20 mg/kg subcutaneous from day 30 of modeling
[17] = 40 mg/kg once daily for 5 days, 2 h after xylene
[18] = 40 mg/kg subcutaneous from day 30 of modeling
[19] = 80 mg/kg once daily for 5 days, 2 h after xylene
[20] = 80 mg/kg subcutaneous from day 30 of modeling

Substance	Joint swelling [1, 11]	Left and right paw swelling [1, 11]	rate of growth inhibition [2]	rate of growth inhibition [3]	rate of growth inhibition [5]	Swelling [6, 14]	Inhibition rate ([6]; 10 mg/kg once daily for 5 days)	Swelling [6, 15]	Inhibition rate ([6]; 20 mg/kg once daily for 5 days)	A570 nm/A630 nm ([7]; 10 μg/mL)	Inhibition Rate of spleen lymphocyte proliferation ([7]; 10 μg/mL)	A570 nm/A630 nm ([7]; 20 μg/mL)	Inhibition Rate of spleen lymphocyte proliferation ([7]; 20 μg/mL)	rate of growth inhibition [8]	rate of growth inhibition [9]	rate of growth inhibition [10]	Swelling [6, 17]	Inhibition rate ([6]; 40 mg/kg once daily for 5 days)	A570 nm/A630 nm ([7]; 40 μg/mL)	Inhibition Rate of spleen lymphocyte proliferation ([7]; 40 μg/mL)	also measured
mPEG-SC5k-Arg-Gly-Ala-Asp-Arg-Ala-Gly-Gly-Gly-Gly-Arg-Gly-Asp ({mPEG‑SC 5 kDa}-RGADRAGGGGRGD) [mPEG-SC5k-HM-1]	0.81 ± 0.12 mm	0.79 ± 0.11 mm	38.37 ± 15.61%	61.27 ± 18.13%	42.18 ± 12.29%	4.90 ± 0.35* mg	20.13%	4.17 ± 0.19** mg	32.10%	0.5480 ± 0.1081	20.54%	0.4954 ± 0.1219	28.16%	40.27 ± 11.36%	60.81 ± 20.27%	39.23 ± 13.18%	–	–	–	–	Clinical score [1, 11]: 9.10 ± 1.27; Cell nuclei count [4, 12]: 9.104 ± 3.087; Inhibition rate ([6]; 5 mg/kg once daily for 5 days): 9.57%; Swelling [6, 13]: 5.55 ± 0.21 mg; A570 nm/A630 nm ([7]; 5 μg/mL): 0.6253 ± 0.0947; Inhibition Rate of spleen lymphocyte proliferation ([7]; 5 μg/mL): 9.32%
mPEG-SC10k-Arg-Gly-Ala-Asp-Arg-Ala-Gly-Gly-Gly-Gly-Arg-Gly-Asp ({mPEG‑SC 10 kDa}-RGADRAGGGGRGD) [mPEG-SC10k-HM-1]	–	–	45.39 ± 12.63%	70.62 ± 20.17%	50.21 ± 12.19%	5.49 ± 0.23 mg	10.55%	4.83 ± 0.32* mg	21.37%	0.6234 ± 0.0976	9.60%	0.5488 ± 0.1052	20.42%	45.61 ± 11.12%	65.89 ± 23.37%	46.23 ± 13.05%	3.98 ± 0.21** mg	35.20%	0.4788 ± 0.1282	30.57%	Joint swelling [1, 16]: 0.79 ± 0.13 mm; Left and right paw swelling [1, 16]: 0.77 ± 0.12 mm; Clinical score [1, 16]: 9.06 ± 1.24; Cell nuclei count ([4]; 50 μg intravitreal for 1 week from day 7, vascular endothelial nuclei per slice): 8.528 ± 3.109
mPEG-SC20k-Arg-Gly-Ala-Asp-Arg-Ala-Gly-Gly-Gly-Gly-Arg-Gly-Asp ({mPEG‑SC 20 kDa}-RGADRAGGGGRGD) [mPEG-SC20k-HM-1]	–	–	49.35 ± 10.04%	72.14 ± 20.69%	55.56 ± 12.13%	–	–	5.38 ± 0.17 mg	12.36%	–	–	0.6213 ± 0.0996	9.91%	49.26 ± 10.32%	70.94 ± 20.65%	50.78 ± 13.46%	4.69 ± 0.79* mg	23.67%	0.5444 ± 0.1120	21.06%	Joint swelling [1, 18]: 0.76 ± 0.12 mm; Left and right paw swelling [1, 18]: 0.72 ± 0.15 mm; Clinical score [1, 18]: 9.00 ± 1.25; limbs score (in words) ([1]; CIA mice, subcutaneous, once every three days, vs model control group): significantly lower than that of the model control group; Cell nuclei count ([4]; 100 μg intravitreal for 1 week from day 7, vascular endothelial nuclei per slice): 7.372 ± 2.078; Swelling [6, 19]: 3.77 ± 0.33** mg; Inhibition rate ([6]; 80 mg/kg once daily for 5 days): 38.58%; A570 nm/A630 nm ([7]; 80 μg/mL): 0.4741 ± 0.1270; Inhibition Rate of spleen lymphocyte proliferation ([7]; 80 μg/mL): 31.25%
mPEG-SC40k-Arg-Gly-Ala-Asp-Arg-Ala-Gly-Gly-Gly-Gly-Arg-Gly-Asp ({mPEG‑SC 40 kDa}-RGADRAGGGGRGD) [mPEG-SC40k-HM-1]	–	–	45.93 ± 12.72%	68.73 ± 21.25%	52.89 ± 15.41%	–	–	–	–	–	–	–	–	43.22 ± 10.25%	68.46 ± 13.19%	50.13 ± 14.21%	5.51 ± 0.13 mg	10.27%	0.6212 ± 0.0972	9.92%	Joint swelling [1, 20]: 0.80 ± 0.16 mm; Left and right paw swelling [1, 20]: 0.80 ± 0.16 mm; Clinical score [1, 20]: 9.09 ± 1.33; Cell nuclei count ([4]; 200 μg intravitreal for 1 week from day 7, vascular endothelial nuclei per slice): 8.089 ± 2.935; Swelling [6, 19]: 4.76 ± 0.72* mg; Inhibition rate ([6]; 80 mg/kg once daily for 5 days): 22.42%; Swelling ([6]; 160 mg/kg once daily for 5 days, 2 h after xylene): 3.87 ± 0.27** mg; Inhibition rate ([6]; 160 mg/kg once daily for 5 days): 37.01%; A570 nm/A630 nm ([7]; 80 μg/mL): 0.5493 ± 0.1056; Inhibition Rate of spleen lymphocyte proliferation ([7]; 80 μg/mL): 20.34%; A570 nm/A630 nm ([7]; 160 μg/mL): 0.4794 ± 0.1214; Inhibition Rate of spleen lymphocyte proliferation ([7]; 160 μg/mL): 30.48%
mPEG-bALD5k-Arg-Gly-Ala-Asp-Arg-Ala-Gly-Gly-Gly-Gly-Arg-Gly-Asp ({mPEG‑bALD 5 kDa}-RGADRAGGGGRGD) [mPEG-bALD5k-HM-1]	0.73 ± 0.15 mm	0.74 ± 0.13 mm	39.27 ± 12.50%	65.62 ± 20.35%	45.11 ± 12.09%	4.83 ± 0.30* mg	20.47%	4.18 ± 0.25** mg	31.08%	0.5645 ± 0.1114	18.64%	0.4957 ± 0.1286	28.56%	39.92 ± 11.33%	66.76 ± 18.59%	42.19 ± 10.35%	–	–	–	–	Clinical score [1, 11]: 8.98 ± 1.25; Cell nuclei count [4, 12]: 8.852 ± 2.933; Inhibition rate ([6]; 5 mg/kg once daily for 5 days): 10.36%; Swelling [6, 13]: 5.44 ± 0.19 mg; A570 nm/A630 nm ([7]; 5 μg/mL): 0.6257 ± 0.1022; Inhibition Rate of spleen lymphocyte proliferation ([7]; 5 μg/mL): 9.82%
